Patent US20210322443A1 (MAPREG, priority 2015, published 2021)

Experiments:
Serotoninergic 5-HT6 = Serotoninergic 5-HT6 (Homo sapiens, UniProt P50406); assay: CNS receptor binding assay; conditions: read-out: % Inhibition of control specific binding
Serotoninergic 5-HT7 = Serotoninergic 5-HT7 (Homo sapiens, UniProt P34969); assay: CNS receptor binding assay; conditions: read-out: % Inhibition of control specific binding
Cannabinoid CB1 = Cannabinoid CB1 (Homo sapiens, UniProt P21554); assay: CNS receptor binding assay; conditions: [3H] CP55940, Human recombinant (CHO cells), read-out: % Inhibition of control specific binding
Oppioid κ = Oppioid κ (Rattus norvegicus, UniProt P34975); assay: CNS receptor binding assay; conditions: [3H] U 69593, rat recombinant (CHO cells), read-out: % Inhibition of control specific binding
MAP2 = MAP2 (Homo sapiens, UniProt P11137); assay: Binding by displacement of PREG-3H
Histaminergic H1 = Histaminergic H1 (Homo sapiens, UniProt P35367); assay: CNS receptor binding assay; conditions: read-out: % Inhibition of control specific binding
[1] = test system: 80 different CNS neurotransmitters receptors; assay: Screen for in vitro affinity to 80 CNS receptors; type: binding; conditions: significant = inhibition higher than 50%
Serotoninergic 5-HT2A = Serotoninergic 5-HT2A (Homo sapiens, UniProt P28223); assay: CNS receptor binding assay; conditions: [3H] ketanserin, Human recombinant (HEK-293 cells), read-out: % Inhibition of control specific binding
Oppioid μ = Oppioid μ (Homo sapiens, UniProt P35372); assay: CNS receptor binding assay; conditions: [3H] DAMGO, Human recombinant (HEK-293 cells), read-out: % Inhibition of control specific binding
Dopaminergic D3 = Dopaminergic D3 (Homo sapiens, UniProt P35462); assay: CNS receptor binding assay; conditions: read-out: % Inhibition of control specific binding
Dopaminergic D4.4 = Dopaminergic D4.4 (Homo sapiens, UniProt P21917); assay: CNS receptor binding assay; conditions: read-out: % Inhibition of control specific binding
Dopaminergic D5 = Dopaminergic D5 (Homo sapiens, UniProt P21918); assay: CNS receptor binding assay; conditions: read-out: % Inhibition of control specific binding
[2] = molecular target: Muscarinic (Cholinergic) M3 (Homo sapiens, UniProt P20309); assay: CNS receptor binding assay; conditions: [3H] 4-DAMP, Human recombinant (CHO cells), read-out: % Inhibition of control specific binding
[3] = test system: alcohol self-administration; assay: Operant alcohol self-administration in ethanol dependent and non-dependent rats; type: in vivo, Wistar rats
Experimental: Alcohol self-administration in ethanol dependent and non-dependent animals is a well-known and well-characterized animal model for analysis of alcoholism behaviors (Roberts et al. 1999, 2000; Rimondini et al. 2002; O'Dell et al. 2004; Richardson et al. 2008; Gilpin et al. 2009).
Adult male Wistar rats (Charles River, Raleigh, N.C.), weighing 225-275 g at the beginning of the experiments, were housed in groups of 2-3 per cage in a temperature-controlled (22° C.) vivarium on a 12 h/12 h light/dark cycle (lights on at 8:00 PM) with ad libitum access to food and water. All behavioral tests were conducted during the dark phase of the light/dark cycle. All procedures adhered to the National Institutes of Health Guide for the Care and Use of Laboratory Animals and were approved by the Institutional Animal Care and Use Committee of The Scripps Research Institute.
Self-administration sessions were conducted in standard operant conditioning chambers (Med Associates, St. Albans, Vt.). Animals were first trained to self-administer 10% (w/v) ethanol and water solutions until a stable response was maintained. The rats were subjected to an overnight session in the operant chambers with access to one lever (right lever) that delivered water (FR1). Food was available ad libitum during this training. After 1 day off, the rats were subjected to a 2 h session (FR1) for 1 day and a 1 h session (FR1) the next day, with one lever delivering alcohol (right lever). All of the subsequent sessions lasted 30 min, and two levers were available (left lever: water; right lever: alcohol) until stable levels of intake were reached. Upon completion of this procedure, the animals were allowed to self-administer a 10% (w/v) alcohol solution and water on an FR1 schedule of reinforcement (i.e., each operant response was reinforced with 0.1 ml of the solution).
Once a stable baseline of alcohol self-administration was reached, the rats were made dependent by chronic, intermittent exposure to alcohol vapors. […]
Data were analyzed by appropriate mixed factorial ANOVA, followed Newman Keuls post hoc tests

[4] = molecular target: Serotoninergic Transporter (Homo sapiens, UniProt P31645); assay: CNS receptor binding assay; conditions: [3H] imipramine, Human recombinant (CHO cells), read-out: % Inhibition of control specific binding
Chain of Serotoninergic Transporter (P31645 whole entry): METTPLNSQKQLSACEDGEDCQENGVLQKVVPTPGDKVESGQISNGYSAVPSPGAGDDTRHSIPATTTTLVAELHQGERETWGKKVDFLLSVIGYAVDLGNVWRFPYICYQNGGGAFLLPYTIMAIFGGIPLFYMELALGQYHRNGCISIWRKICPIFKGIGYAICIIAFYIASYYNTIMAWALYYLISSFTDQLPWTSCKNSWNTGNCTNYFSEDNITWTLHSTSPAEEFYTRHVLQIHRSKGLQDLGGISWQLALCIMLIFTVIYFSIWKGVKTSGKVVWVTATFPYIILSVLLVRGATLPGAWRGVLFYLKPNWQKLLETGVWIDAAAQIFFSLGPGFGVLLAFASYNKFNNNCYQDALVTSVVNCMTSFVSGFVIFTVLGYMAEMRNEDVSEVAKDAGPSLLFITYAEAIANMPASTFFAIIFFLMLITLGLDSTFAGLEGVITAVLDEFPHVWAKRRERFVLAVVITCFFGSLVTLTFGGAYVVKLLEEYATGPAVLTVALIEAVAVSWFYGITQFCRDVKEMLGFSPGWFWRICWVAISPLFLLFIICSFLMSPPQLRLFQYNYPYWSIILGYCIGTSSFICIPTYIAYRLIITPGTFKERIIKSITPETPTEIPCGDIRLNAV

Chain of Serotoninergic 5-HT7 (P34969 whole entry): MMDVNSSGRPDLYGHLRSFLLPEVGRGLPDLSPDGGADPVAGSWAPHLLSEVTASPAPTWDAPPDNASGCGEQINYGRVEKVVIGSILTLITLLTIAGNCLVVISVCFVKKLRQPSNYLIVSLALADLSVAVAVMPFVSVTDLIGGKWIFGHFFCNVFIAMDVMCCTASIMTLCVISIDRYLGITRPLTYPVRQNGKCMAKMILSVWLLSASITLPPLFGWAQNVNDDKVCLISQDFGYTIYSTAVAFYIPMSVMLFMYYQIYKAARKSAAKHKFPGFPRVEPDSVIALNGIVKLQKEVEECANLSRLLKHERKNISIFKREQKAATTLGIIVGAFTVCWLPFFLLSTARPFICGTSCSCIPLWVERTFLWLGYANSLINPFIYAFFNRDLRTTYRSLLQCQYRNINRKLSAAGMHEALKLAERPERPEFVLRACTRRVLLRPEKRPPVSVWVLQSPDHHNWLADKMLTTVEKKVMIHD
Chain of Cannabinoid CB1 (P21554 whole entry): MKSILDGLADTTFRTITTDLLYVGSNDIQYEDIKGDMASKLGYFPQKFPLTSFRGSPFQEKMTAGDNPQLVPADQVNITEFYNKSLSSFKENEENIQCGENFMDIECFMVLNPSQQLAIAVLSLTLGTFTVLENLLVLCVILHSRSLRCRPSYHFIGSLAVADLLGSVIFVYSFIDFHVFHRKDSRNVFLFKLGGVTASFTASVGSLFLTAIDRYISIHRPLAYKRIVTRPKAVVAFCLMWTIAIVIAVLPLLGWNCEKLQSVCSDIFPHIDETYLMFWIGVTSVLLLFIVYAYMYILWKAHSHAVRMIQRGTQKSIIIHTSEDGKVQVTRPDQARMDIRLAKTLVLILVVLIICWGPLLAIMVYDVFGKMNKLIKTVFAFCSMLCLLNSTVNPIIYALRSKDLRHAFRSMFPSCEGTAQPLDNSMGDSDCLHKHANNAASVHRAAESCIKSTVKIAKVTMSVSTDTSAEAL
Chain of Muscarinic (Cholinergic) M3 (P20309 whole entry): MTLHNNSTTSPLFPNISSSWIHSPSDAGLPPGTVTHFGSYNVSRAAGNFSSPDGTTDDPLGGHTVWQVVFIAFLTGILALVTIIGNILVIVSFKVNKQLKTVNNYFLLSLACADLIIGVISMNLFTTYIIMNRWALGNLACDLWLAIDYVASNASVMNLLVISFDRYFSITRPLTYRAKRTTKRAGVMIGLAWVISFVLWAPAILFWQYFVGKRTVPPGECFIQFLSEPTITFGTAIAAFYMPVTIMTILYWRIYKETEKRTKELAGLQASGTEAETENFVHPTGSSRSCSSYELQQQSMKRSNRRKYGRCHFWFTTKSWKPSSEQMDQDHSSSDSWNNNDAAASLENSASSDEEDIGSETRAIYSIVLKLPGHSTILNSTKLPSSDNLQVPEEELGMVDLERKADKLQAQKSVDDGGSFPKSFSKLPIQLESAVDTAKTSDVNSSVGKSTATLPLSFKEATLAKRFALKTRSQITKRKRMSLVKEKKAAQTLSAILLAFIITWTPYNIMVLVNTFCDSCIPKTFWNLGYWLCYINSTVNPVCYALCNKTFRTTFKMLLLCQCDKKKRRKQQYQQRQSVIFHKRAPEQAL
Chain of Histaminergic H1 (P35367 whole entry): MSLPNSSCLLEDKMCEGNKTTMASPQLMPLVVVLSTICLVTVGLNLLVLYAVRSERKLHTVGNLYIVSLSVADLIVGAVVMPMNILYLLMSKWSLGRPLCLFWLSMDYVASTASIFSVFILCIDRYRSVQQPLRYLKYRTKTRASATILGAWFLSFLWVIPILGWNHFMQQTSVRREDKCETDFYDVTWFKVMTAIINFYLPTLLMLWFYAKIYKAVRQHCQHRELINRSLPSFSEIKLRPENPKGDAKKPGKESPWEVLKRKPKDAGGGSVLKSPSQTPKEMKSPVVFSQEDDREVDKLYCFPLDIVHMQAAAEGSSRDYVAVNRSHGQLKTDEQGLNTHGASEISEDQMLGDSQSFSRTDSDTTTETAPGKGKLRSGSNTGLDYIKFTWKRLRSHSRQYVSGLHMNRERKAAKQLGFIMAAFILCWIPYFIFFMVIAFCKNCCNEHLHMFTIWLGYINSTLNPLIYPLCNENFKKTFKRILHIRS
Chain of Oppioid μ (P35372 whole entry): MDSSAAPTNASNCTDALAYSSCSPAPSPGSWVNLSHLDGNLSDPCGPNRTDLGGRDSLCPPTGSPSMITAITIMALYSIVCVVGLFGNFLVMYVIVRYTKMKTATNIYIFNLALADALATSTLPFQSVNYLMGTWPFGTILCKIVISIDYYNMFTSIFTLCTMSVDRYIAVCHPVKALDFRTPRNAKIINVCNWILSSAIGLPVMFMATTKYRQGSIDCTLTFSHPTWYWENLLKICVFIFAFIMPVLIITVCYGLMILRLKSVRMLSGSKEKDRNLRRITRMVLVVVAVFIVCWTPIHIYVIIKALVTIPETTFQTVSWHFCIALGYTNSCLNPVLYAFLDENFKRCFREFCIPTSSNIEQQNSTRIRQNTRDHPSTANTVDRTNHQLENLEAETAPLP
Chain of Oppioid κ (P34975 whole entry): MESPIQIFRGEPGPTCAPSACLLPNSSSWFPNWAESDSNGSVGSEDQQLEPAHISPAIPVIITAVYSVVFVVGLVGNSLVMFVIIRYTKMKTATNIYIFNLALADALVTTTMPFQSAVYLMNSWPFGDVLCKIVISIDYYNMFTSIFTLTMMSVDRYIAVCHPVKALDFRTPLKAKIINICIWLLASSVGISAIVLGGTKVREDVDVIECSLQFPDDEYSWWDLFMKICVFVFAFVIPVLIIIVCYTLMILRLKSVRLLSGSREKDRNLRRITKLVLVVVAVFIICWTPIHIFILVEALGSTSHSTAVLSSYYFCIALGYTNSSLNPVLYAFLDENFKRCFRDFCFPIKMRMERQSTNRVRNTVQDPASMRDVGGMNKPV
Chain of Dopaminergic D3 (P35462 whole entry): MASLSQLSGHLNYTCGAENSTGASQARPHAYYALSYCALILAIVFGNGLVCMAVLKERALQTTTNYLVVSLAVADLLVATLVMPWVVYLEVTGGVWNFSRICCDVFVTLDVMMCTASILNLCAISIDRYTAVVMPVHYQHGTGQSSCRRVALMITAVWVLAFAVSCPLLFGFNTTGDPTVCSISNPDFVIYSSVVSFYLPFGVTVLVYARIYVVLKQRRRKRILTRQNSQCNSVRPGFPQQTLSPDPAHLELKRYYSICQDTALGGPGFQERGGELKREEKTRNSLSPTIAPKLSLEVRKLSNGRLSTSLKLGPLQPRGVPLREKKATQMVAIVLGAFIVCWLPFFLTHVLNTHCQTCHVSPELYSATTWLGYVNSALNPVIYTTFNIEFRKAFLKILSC
Chain of Serotoninergic 5-HT2A (P28223 whole entry): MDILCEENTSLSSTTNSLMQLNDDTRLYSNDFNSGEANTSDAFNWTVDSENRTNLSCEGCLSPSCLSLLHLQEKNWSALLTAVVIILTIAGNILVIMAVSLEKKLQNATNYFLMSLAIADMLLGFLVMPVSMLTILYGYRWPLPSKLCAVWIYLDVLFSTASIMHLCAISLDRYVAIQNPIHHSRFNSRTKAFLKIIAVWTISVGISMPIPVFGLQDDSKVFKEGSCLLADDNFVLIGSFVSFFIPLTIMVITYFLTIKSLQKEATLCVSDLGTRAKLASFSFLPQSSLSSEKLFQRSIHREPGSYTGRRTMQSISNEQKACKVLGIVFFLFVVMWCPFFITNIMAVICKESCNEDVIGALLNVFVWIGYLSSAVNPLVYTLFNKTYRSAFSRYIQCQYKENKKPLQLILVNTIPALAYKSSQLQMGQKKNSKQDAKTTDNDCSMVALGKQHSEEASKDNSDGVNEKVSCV
Chain of Dopaminergic D4.4 (P21917 whole entry): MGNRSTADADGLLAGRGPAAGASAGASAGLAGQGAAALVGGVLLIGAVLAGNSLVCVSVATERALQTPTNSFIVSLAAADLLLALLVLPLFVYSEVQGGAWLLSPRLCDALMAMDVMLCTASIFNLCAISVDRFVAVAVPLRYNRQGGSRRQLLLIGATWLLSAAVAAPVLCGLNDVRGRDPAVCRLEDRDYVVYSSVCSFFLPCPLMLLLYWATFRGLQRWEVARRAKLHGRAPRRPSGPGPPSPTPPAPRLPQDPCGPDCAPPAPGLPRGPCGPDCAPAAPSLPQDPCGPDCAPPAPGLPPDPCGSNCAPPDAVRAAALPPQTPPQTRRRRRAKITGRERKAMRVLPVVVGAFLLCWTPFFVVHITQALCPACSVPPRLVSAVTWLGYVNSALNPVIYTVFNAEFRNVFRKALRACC

SMILES: CO[C@H]1CC[C@@]2(C)C(=CC[C@H]3[C@@H]4CC[C@H](C(C)=O)[C@@]4(C)CC[C@@H]32)C1 [MAP4343, 3β-methoxy-pregna-5-ene-20-one]
- inhibition at 10 µM (Serotoninergic 5-HT6): 12%
- inhibition at 10 µM (Serotoninergic 5-HT7): -11%
- inhibition at 10 µM (Cannabinoid CB1): 12%
- inhibition at 10 µM (Oppioid κ): 19%
- Affinity (index of binding, percent of PREG) (MAP2): 100% of PREG
- inhibition at 10 µM (Histaminergic H1): 9%
- in vitro affinity for any tested receptor [1]: no significant affinity for any tested receptor
- inhibition at 10 µM (Serotoninergic 5-HT2A): 1%
- inhibition at 10 µM (Oppioid μ): 0%
- inhibition at 10 µM (Dopaminergic D3): 8%
- inhibition at 10 µM (Dopaminergic D4.4): 6%
- inhibition at 10 µM (Dopaminergic D5): -7%
- inhibition at 10 µM [2]: 3%
- operant responding for alcohol (alcohol reinforced responses) ([3]; dependent (vapor) rats, 10 mg/kg sub-cutaneously in sesame oil 24 hours before each test session, p<0.05 from test session 8): significantly reduce operant responding for alcohol selectively in the dependent animals
- time of treatment until efficacy was apparent ([3]; dependent rats, 10 mg/kg sub-cutaneously): ~10 days
- reduction of excessive alcohol drinking ([3]; non-dependent (air) rats, 10 mg/kg sub-cutaneously 24 hours before each test session): not in non-dependent rats
- inhibition at 10 µM [4]: 3%
